According to patent US12102633B2, “Spirolactone compounds” (Quixgen, Inc., priority 2017, dated 2024):
“Also recorded” adds a separate entry of the source.

Experiments:
[1] = PK study in male C57 mouse for Examples 14 and 15; type: in vivo; settings: for concentration at 0.5 h: 0.50 h
Protocol: Pharmacokinetic studies were carried out with male C57 mouse. Compounds (Example 14 and Example 15) were each formulated in 5% DMSO+10% Solutol HS 15+85% Saline, and dosed at 1 mpk for IV injection (5 mL/kg) and 10 mpk for oral gavage (10 mUkg). Plasma samples at various time points were quantitated with LC-MS. Data reported were average of three mice.
Tables 1 and 2 below show plasma concentrations (ng/mL) and PK parameters of Example 14 in male C57 mouse after 1 mpk IV injection and 10 mpk PO gavage, respectively. The plasma concentration (ng/mL) of the acid compound, Example 15, was also measured and reported below.
Tables 3 and 4 below show plasma concentrations (ng/mL) and PK parameters of Example 15 in male C57 mouse after 1 mpk IV injection and 10 mpk PO gavage, respectively.

[2] = test system: liver triglycerides (TG) in C57BL/6J mice; test: Chronic treatment for reducing liver triglycerides in C57BL/6J mice; type: in vivo, mouse; settings: male C57BL/6J mice; 30 mg per kilogram body weight in PEG400, oral gavage once per day for 2 weeks; FIG. 1, vs vehicle
Protocol: Male C57BL/6J mice (Jackson Laboratory) at around 9 weeks of age were treated with vehicle (0.5% methylcellulose or PEG400) or Example 14 (30 mg per kilogram body weight, dosing solution prepared in PEG400) and Example 20 (20 mg per kilogram body weight, dosing solution prepared in 0.5% methylcellulose) by oral gavage at ˜9:00 am, once per day for 2 weeks. Concentrations of Example 14 and Example 20 were 15 mg/ml and 2 mg/ml, respectively. The dosing volumes of Example 14 and Example 20 were 2 ml per kilogram body weight and 10 ml per kilogram body weight, respectively. After 14-day treatment, animals were euthanized in CO2 at 2 hours post dose and liver was frozen and kept on dry ice. Liver TG was measured by extracting lipids with chloroform:methanol 2:1 (v/v) followed by quantitation with Infinity™ Triglycerides Reagent (Thermo Scientific).

Human sebocytes = test: Proliferation of human sebocytes; type: cell-based; settings: 24 hours, MTT, read-out: AP-Sebo IC50
Protocol: Human sebocytes (Celprogen) and keratinocytes (ATCC) were grown in 96-well culture microplate (Coming) with growth media to around 50% confluency. Media was changed to growth media mixed with serially diluted compounds in DMSO (1:1000 dilution). After treatment for 24 hours, media was changed to 100 μL phenol red free DMEM and cell numbers were quantitated by using Vybrant® MTT Cell Proliferation Assay Kit (Molecular Probes). Ten μL of 12 mM MTT stock solution was added to each well and the microplate was incubated at 37° C. for 4 hours. Then 100 μL of the SDS-HCl solution was added to each well and mixed thoroughly using a pipette. The microplate was incubated at 37° C. for 4 hours in a cell culture incubator. The microplate was mixed again using a pipette and absorbance was read at 570 nm (Dynex MRX^e Magellan Biosciences). Effect of compounds on proliferation of human keratinocytes was calculated by % of DMSO vehicle control.

3T3-L1 adipocytes = test: Lipogenesis of 3T3-L1 adipocytes; type: cell-based; settings: Mus musculus, TG readout, read-out: LG-3T3 IC50
Protocol: 3T3-L1 fibroblast cells (Zen-Bio) were grown in 96-well culture microplate (Corning) with growth media to around 90-100% confluency. Culture media was changed to differentiation media (growth media supplemented with 3-Isobutyl-1-Methylxanthine 500 μM, Dexamethasone 1 μM, insulin 10 μg/mL, and rosiglitazone 2 μM) plus serially diluted compounds prepared in DMSO (1:1000 dilution). After incubation for 2 days, media was changed to maintenance media (growth media supplemented with insulin 10 μg/mL) plus serially diluted compounds prepared in DMSO (1:1000 dilution) for around 1 week with media changed every 2 days. Upon completion of the treatment, culture media are discarded and 200 μL 0.01% SDS was added to each well and shaken for 1 hour to lyse the cells. Cell lysates were then transferred to 400 μL Folch's solution (chloroform: methanol=2:1) and mixed well. After centrifuge at 2,000 rpm for 20 min, 200 μL of the lower organic phase was transferred to a plate with 10 μL sample buffer (chloroform:Triton-100=3:1). Samples were blown dried under nitrogen and 200 μL triglyceride (TG) quantification reagent (Thermo Fisher Scientific) was added, mixed, and incubated at 37° C. for 30 min. TG concentration was determined by reading absorbance at 535 nm (Dynex MRX^e Magellan Biosciences) and calculated from standard curve.

[3] = test system: T1, Mouse ACC (ACC protein purified from liver); test: Mouse ACC enzymatic activity assay; type: biochemical; settings: read-out: EA-CoA mACC IC50
T1 construct: ACC protein was purified by taking advantage of the biotinylation in the carboxylase domain
Protocol: ACC protein was purified by taking advantage of the biotinylation in the carboxylase domain. Male C57BL/6J mice (Jackson Laboratory) at 8-12 weeks of age were euthanized by using CO2 inhalation method and liver was immediately frozen on dry ice. To 100 mg liver was added 1 mL ice-cold tissue lysis buffer (20 mM Tris-HCl pH 7.5, 150 mM NaCl, 1 mM Na2EDTA, 1 mM EGTA, 1% Triton, 2.5 mM sodium pyrophosphate, 1 mM 3-glycerophosphate, 1 mM Na3VO4, 1 μg/mL leupeptin, 1 tablet of protease inhibitor cocktail (Roche) per 10 mL lysis buffer) followed by homogenization on ice with Power Gen 125 homogenizer (Fisher Scientific). After 30 min incubation on ice, tissue lysate was passed through a 10 mL syringe with 18½ G needle for 10 times to shear DNA. The lysate was then subject to 17.5%-35% saturated ammonium sulfate precipitation by adding 880 mg ammonium sulfate powder (Sigma) to 10 mL liver lysate in 10 min with stirring on ice. Sample was centrifuged at 14,000 rpm (Eppendorf) at 4° C. for 10 min and supernatant was saved for further precipitation by adding 880 mg ammonium sulfate powder to 10 ml supernatant in 10 min with stirring on ice. Sample was centrifuged at 14,000 rpm at 4° C. for 10 min. Supernatant was discarded and pellet was dissolved in 10 mL sample buffer (100 mM Tris-HCl, pH 7.5, 1 mM EDTA, 0.1 mM DTT, 0.5 M NaCl, and 5% glycerol). The sample was then added with 1 mL of Strep Mag beads slurry (Genscript) and rotated at 4° C. for 1 hour. Supernatant was discarded and beads were washed with sample buffer for 3 times. Protein was then eluted by adding 10 mL of 2 mM biotin (Promega) prepared in sample buffer. The eluate was then dialyzed at 4° C. for 1 hour by using Slide-A-Lyzer™ Dialysis Cassettes 10K MWCO (Thermo Fisher Scientific) against 3 changes of 200 mL dialysis buffer (50 mM HEPES, pH 7.5, 0.1 mM DTT, 1.0 mM EDTA, and 10% glycerol). Total protein concentration was then quantitated by using BCA protein assay kit (Pierce).
For ACC enzymatic activity assay, 1 μL serial diluted compounds prepared in DMSO in duplicate were mixed with 8 μL dialyzed sample at 37° C. for 10 min. Ninety one L of reaction buffer (50 mM HEPES pH 7.5, 10 mM MgCl2, 2.0 mM DTT, 0.5 mM acetyl-CoA, 4.0 mM ATP, 15 mM ^13C-NaHCO3, 0.75 mg/mL BSA, 0.5 mM sodium citrate) was added to the tube and mixed thoroughly. After incubation at 37° C. for 1 hour, 300 μl ice-cold quenching buffer (acetonitrile:methanol=1:1, 20 μM carbutamide as internal standard) was added to each tube and mixed well to terminate the reaction. Samples were centrifuged at 14,000 rpm for 10 min (Eppendorf) and supernatant was loaded onto LC-MS/MS for quantitation of malonyl-^13C-CoA (Gao et al., Journal of chromatography B, Analytical technologies in the biomedical and life sciences 853, 303-313 (2007)).
Shimadzu LC system was used for sample analysis consisting of system controller (Shimadzu CBM-20A), autosampler (Shimadzu SIL-20A), pump A and B (Shimadzu LC-20AD), column oven (Shimadzu CTO-20A), and analytical column (Phenomenex Gemini 5u C18 11A, 100×2 mm). LC was running at 200 μL/min in the binary gradient mode with mobile phase A (5 mM Ammonium Acetate and 5 mM DMBA in water (1,3-Dimethylbutylamine)) and B (methanol). The samples were analyzed on an AB Sciex QTrap4000 LC-MS/MS triple quadrupole mass spectrometer (Applied Biosystems). Malonyl-CoA and malonyl-13C-CoA were monitored in positive ion mode following MRM transitions at 854.2/347.1 and 855.1/246.1, respectively. The product and internal standard were coeluted to the mass spectrometer in 3 s with 50% H2O, 25% MeCN, 25% acetone, and 5 mM ammonium acetate. Ion chromatograms were integrated using the Analyst 1.5.2 software. Peak area ratios were compared against a standard curve and final cellular concentration of malonyl-CoA or production rate of malonyl-13C-CoA was calculated as pmoles/mg protein per minute.

[4] = male, C57, mouse, plasma, iv, 1 mg/kg, Example 14 dosed 1 mpk IV, analyte = labelled compound
[5] = male, C57, mouse, plasma, po, 10 mg/kg, Example 14 dosed 10 mpk PO gavage, analyte = labelled compound
[6] = plasma, 1 mg/kg, Example 14 dosed 1 mpk IV

SMILES: COC(=O)c1cncc(-c2ccc3c(c2)C(=O)OC2(CCN(C(=O)c4cc(OC)c5cccc(OC)c5n4)CC2)C3)c1 [Example 14, methyl 5-(1′-(4,8-dimethoxyquinoline-2-carbonyl)-1-oxospiro[isochroman-3,4′-piperidin]-7-yl)nicotinate]
- Plasma Concentration, Mean ([1]; Example 14 dosed 1 mpk IV, 8.00 h, analyte = labelled compound): BLQ
- Plasma Concentration, Mean ([1]; Example 14 dosed 1 mpk IV, 24.00 h, analyte = labelled compound): BLQ
- F ([1]; Example 14 dosed 10 mpk PO gavage): 88%
- Plasma Concentration, Mean ([1]; Example 14 dosed 10 mpk PO gavage, 24.00 h, analyte = labelled compound): BLQ
- MRT ([1]; male, C57, mouse, plasma, iv, 1 mg/kg, Example 14 dosed 1 mpk IV): 0.41 h
- concentration at 0.08 h ([1]; male, C57, mouse, plasma, iv, 1 mg/kg, Example 14 dosed 1 mpk IV, 0.08 h, analyte = labelled compound): 1880 ng/mL
- concentration at 0.25 h [1, 4]: 1080 ng/mL
- concentration at 0.5 h [1, 4]: 521 ng/mL
- concentration at 1 h [1, 4]: 199 ng/mL
- concentration at 2 h [1, 4]: 30 ng/mL
- concentration at 4 h [1, 4]: 4.4 ng/mL
- concentration at 0.25 h [1, 5]: 3660 ng/mL
- concentration at 0.5 h [1, 5]: 5970 ng/mL
- concentration at 1 h [1, 5]: 3160 ng/mL
- concentration at 2 h [1, 5]: 1010 ng/mL
- concentration at 4 h [1, 5]: 345 ng/mL
- concentration at 8 h ([1]; male, C57, mouse, plasma, po, 10 mg/kg, Example 14 dosed 10 mpk PO gavage, 8.00 h, analyte = labelled compound): 125 ng/mL
- Cmax [1, 5]: 6330 ng/mL
- MRT [1, 5]: 1.6 h
- Tmax [1, 5]: 25.2 min
- Vd [1, 6]: 0.49 L/kg
- clearance [1, 6]: 18.5 mL/min/kg
- half-life [1, 6]: 19.2 min
- Liver TG [2]: reduced liver triglycerides; also recorded: reduced liver TG

SMILES: CCc1ccc2c(c1)C(=O)OC1(CCN(C(=O)c3cc(OC)c4cccc(OC)c4c3)CC1)C2 [Example 3, 1′-(4,8-dimethoxy-2-naphthoyl)-7-ethylspiro[isochroman-3,4′-piperidin]-1-one]
- IC50 (Human sebocytes): 44.4 nM
- IC50 (3T3-L1 adipocytes): 1.4 nM
- IC50 [3]: 3.4 nM

SMILES: CCc1ccc2c(c1)C(=O)OC1(CCN(C(=O)c3cc(OC)c4cccc(OC)c4n3)CC1)C2 [Example 4, 1′-(4,8-dimethoxyquinoline-2-carbonyl)-7-ethylspiro[isochroman-3,4′-piperidin]-1-one]
- IC50 (Human sebocytes): 148 nM
- IC50 (3T3-L1 adipocytes): 27.7 nM
- IC50 [3]: 11.3 nM
